Experimental data reported in PubChem BioAssay (NCI).
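Compound exposure: 48 hours, 5 concentrations, 96-well plates. The concentration for 50% growth inhibition is given as GI50. Definition used: TGI = concentration required for complete inhibition of growth.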

Columns and labels:
Assay in all cases: NCI tumour cell line growth inhibition, 48 h
SF-539 CNS = test system: SF-539 CNS
SN12C renal = test system: SN12C renal
HCT-116 colon = test system: HCT-116 colon
NCI-H522 lung = test system: NCI-H522 lung
HL-60(TB) leukemia = test system: HL-60(TB) leukemia
SK-MEL-28 melanoma = test system: SK-MEL-28 melanoma
SNB-75 CNS = test system: SNB-75 CNS
786-0 renal = test system: 786-0 renal
K-562 leukemia = test system: K-562 leukemia
SR leukemia = test system: SR leukemia
COLO 205 colon = test system: COLO 205 colon
A549 NSCLC = test system: A549 NSCLC
SW-620 colon = test system: SW-620 colon
HOP-92 NSCLC = test system: HOP-92 NSCLC
SF-295 CNS = test system: SF-295 CNS
MDA-MB-435 = test system: MDA-MB-435
M14 melanoma = test system: M14 melanoma
RPMI-8226 leukemia = test system: RPMI-8226 leukemia
NCI-H23 lung = test system: NCI-H23 lung
NCI/ADR-RES ovarian = test system: NCI/ADR-RES ovarian
T-47D breast = test system: T-47D breast
A498 renal = test system: A498 renal
HS 578T breast = test system: HS 578T breast
SNB-19 CNS = test system: SNB-19 CNS
OVCAR-3 ovarian = test system: OVCAR-3 ovarian
UACC-257 melanoma = test system: UACC-257 melanoma
ACHN renal = test system: ACHN renal
MALME-3M melanoma = test system: MALME-3M melanoma

**Q.** `CC(C)C[C@H]1C(=O)O[C@H](C(C)C)C(=O)N(C)[C@@H](C(C)C)C(=O)O[C@H](C(C)C)C(=O)N(C)[C@@H](C(C)C)C(=O)O[C@H](C(C)C)C(=O)N1C` was tested. Which GI50 (SF-539 CNS) did it give?
**A.** 3.2 µM

**Q.** What about the TGI (SF-539 CNS) of the same molecule?
**A.** > 10 µM

**Q.** What about the GI50 (SN12C renal) of the same molecule?
**A.** 3.09 µM

**Q.** What about the TGI (SN12C renal) of the same molecule?
**A.** > 10 µM

**Q.** What about the GI50 (HCT-116 colon) of the same molecule?
**A.** 3.18 µM

**Q.** And the TGI (HCT-116 colon)?
**A.** > 10 µM

**Q.** What about the GI50 (NCI-H522 lung) of the same molecule?
**A.** 2.61 µM

**Q.** What about the TGI (NCI-H522 lung) of the same molecule?
**A.** > 10 µM

**Q.** What about the GI50 (HL-60(TB) leukemia) of the same molecule?
**A.** 2.32 µM

**Q.** What about the TGI (HL-60(TB) leukemia) of the same molecule?
**A.** 5.23 µM

**Q.** What about the GI50 (SK-MEL-28 melanoma) of the same molecule?
**A.** 4.23 µM

**Q.** What about the TGI (SK-MEL-28 melanoma) of the same molecule?
**A.** > 10 µM

**Q.** And the GI50 (SNB-75 CNS)?
**A.** 2.25 µM

**Q.** What about the TGI (SNB-75 CNS) of the same molecule?
**A.** > 10 µM

**Q.** And the GI50 (786-0 renal)?
**A.** 3.71 µM

**Q.** What about the TGI (786-0 renal) of the same molecule?
**A.** > 10 µM

**Q.** What about the GI50 (K-562 leukemia) of the same molecule?
**A.** 3.7 µM

**Q.** And the TGI (K-562 leukemia)?
**A.** > 10 µM

**Q.** What about the GI50 (SR leukemia) of the same molecule?
**A.** 3.65 µM

**Q.** What about the TGI (SR leukemia) of the same molecule?
**A.** > 10 µM

**Q.** What about the GI50 (COLO 205 colon) of the same molecule?
**A.** 1.64 µM

**Q.** What about the TGI (COLO 205 colon) of the same molecule?
**A.** 3.29 µM

**Q.** And the GI50 (A549 NSCLC)?
**A.** 3.44 µM

**Q.** What about the TGI (A549 NSCLC) of the same molecule?
**A.** > 10 µM

**Q.** And the GI50 (SW-620 colon)?
**A.** 3.38 µM

**Q.** And the TGI (SW-620 colon)?
**A.** > 10 µM

**Q.** What about the GI50 (HOP-92 NSCLC) of the same molecule?
**A.** 1.7 µM

**Q.** What about the TGI (HOP-92 NSCLC) of the same molecule?
**A.** 5.51 µM

**Q.** What about the GI50 (SF-295 CNS) of the same molecule?
**A.** 2.72 µM

**Q.** What about the TGI (SF-295 CNS) of the same molecule?
**A.** > 10 µM

**Q.** And the GI50 (MDA-MB-435)?
**A.** 3.46 µM

**Q.** What about the TGI (MDA-MB-435) of the same molecule?
**A.** > 10 µM

**Q.** And the GI50 (M14 melanoma)?
**A.** 3.65 µM

**Q.** And the TGI (M14 melanoma)?
**A.** > 10 µM

**Q.** And the GI50 (RPMI-8226 leukemia)?
**A.** 1.53 µM

**Q.** And the TGI (RPMI-8226 leukemia)?
**A.** 5.56 µM

**Q.** What about the GI50 (NCI-H23 lung) of the same molecule?
**A.** 3.19 µM

**Q.** And the TGI (NCI-H23 lung)?
**A.** > 10 µM

**Q.** What about the GI50 (NCI/ADR-RES ovarian) of the same molecule?
**A.** 2.9 µM

**Q.** What about the TGI (NCI/ADR-RES ovarian) of the same molecule?
**A.** > 10 µM

**Q.** And the GI50 (T-47D breast)?
**A.** 2.65 µM

**Q.** What about the TGI (T-47D breast) of the same molecule?
**A.** 8.43 µM

**Q.** What about the GI50 (A498 renal) of the same molecule?
**A.** 1.72 µM

**Q.** And the TGI (A498 renal)?
**A.** 6.4 µM

**Q.** And the GI50 (HS 578T breast)?
**A.** 4.1 µM

**Q.** And the TGI (HS 578T breast)?
**A.** > 10 µM

**Q.** And the GI50 (SNB-19 CNS)?
**A.** 3.4 µM

**Q.** And the TGI (SNB-19 CNS)?
**A.** > 10 µM

**Q.** And the GI50 (OVCAR-3 ovarian)?
**A.** 2.4 µM

**Q.** And the TGI (OVCAR-3 ovarian)?
**A.** > 10 µM

**Q.** And the GI50 (UACC-257 melanoma)?
**A.** 2.62 µM

**Q.** What about the TGI (UACC-257 melanoma) of the same molecule?
**A.** 8.49 µM

**Q.** And the GI50 (ACHN renal)?
**A.** 2.6 µM

**Q.** What about the TGI (ACHN renal) of the same molecule?
**A.** 8.83 µM

**Q.** And the GI50 (MALME-3M melanoma)?
**A.** 2.06 µM

**Q.** What about the TGI (MALME-3M melanoma) of the same molecule?
**A.** 8.67 µM
